Type in all cases: in vivo, C57BL/6 J male mice
Test [1] has as its system HFD-fed mice. Kind of test: Adipose tissue (gWAT) and systemic inflammation in HFD-fed mice. Conditions: for serum TNF-α levels: ELISA; for macrophage accumulation in gWAT (F4/80 protein, crown-like structures): compared with HFD controls. The method, then: (§1) To evaluate the anti-obesity effect in vivo, mice fed either NCD or HFD for 10 weeks were subsequently treated for up to 4 weeks. To control for injection route-related variables, all mice received both intraperitoneal (I.P.) and subcutaneous (S.C.) injections. The administration were as follows: LJ-4378 treated mice received LJ-4378, which was synthesized in our laboratory at > 95% purity (1 mg/kg/day, I.P.) (Hou et al. [2010]; Kim et al. [2022]) along with the vehicle for TZP (40 mM Tris–HCl, pH 8, S.C.); TZP treated mice received TZP (Samms et al. [2021]; Kim et al. [2022]) (LY3298176, MedChemExpress, Monmouth Junction, NJ, USA) (10 nmol/kg/day, S.C.) along with the vehicle for LJ-4378 (0.2% DMSO, I.P.); vehicle control mice received both vehicles (0.2% DMSO, I.P. and 40 mM Tris–HCl, pH 8, S.C.)
The serum TNF-α level was measured using TNF-alpha ELISA MTA00B (R&D system) in accordance with the manufacturer’s protocol.
For protein extraction, we utilized PRO-RERP Protein Extraction Solution (17081, iNtRON Biotechnology, Gyeonggi-do, Korea), supplemented with […] Protease Inhibitor (S8820, Sigma, St. Louis, MO, USA) and PhosSTOP phosphatase inhibitor (#4906837001, Roche, Basel, Switzerland). Protein concentrations were determined using the Pierce BCA protein assay Kit (#23227, Thermo Fisher, Waltham, Massachusetts, USA) by measuring absorbance at 562 nm with a MultiSkan GO spectrophotometer (Thermo Fisher). The quantified proteins were loaded and separated in 12% SDS-PAGE gels and transferred to polyvinylidene difluoride (PVDF) membranes (Bio-Rad, Hercules, CA, USA). Membranes were blocked in 5% bovine serum albumin or skim milk in Tris-buffered saline with 0.1% Tween 20 (TBST) for 1 h, followed by overnight incubation with primary antibodies. The next day, membranes were washed 3 times with TBST and incubated for 1 h with horseradish peroxidase (HRP)-conjugated secondary antibody: Goat anti-rabbit (1:3000, #31460, Thermo Fisher) and Goat anti-Mouse IgG (1:3000, 115–035-174, Jackson ImmunoResearch). After secondary antibody incubation, membranes were washed 3 times with TBST and detected with the Fusion Solo chemiluminescence imaging system (Vilber Lourmat, France). EvolutionCapt (version 17.03) software and the ImageJ (National Institutes of Health, Bethesda, MD, USA) program were used for analysis and to quantify the protein level.
RT-qPCR was conducted according to the method (Cho et al. [2022]). The tissue samples were lysed in TRIzol (#15596018, Thermo Fisher), and the total RNA was extracted. The extracted RNA was synthesized into cDNA using the cDNA Reverse Transcription Kit (Applied Biosystems, Waltham, MA, USA). mRNA levels were quantified using iQ SYBR Green Supermix on the CFX Connect Real-time system (Bio-rad). Relative expression levels of each gene were calculated using the […] method, with the reference housekeeping gene as follows: Peptidylprolyl isomerase A (Ppia) for adipose tissue and glyceraldehyde-3-phosphate dehydrogenase (Gapdh) for hypothalamus.
Adipose tissues were fixed in 10% formalin (HT50128, Sigma) for 2 days and made into paraffin slides. The deparaffinized sections were stained with ClearView Staining Hematoxylin (MA010081, BBC Biochemical, Mount Vernon, WA, USA) and Eosin Y Alcoholic (#3610, BBC Biochemical) solution. The crown-like structure formation of gonadal white adipose tissue (gWAT) and triglyceride (TG) accumulation in the liver are observed using hematoxylin and eosin staining on paraffin slides. The images were captured using Nikon Elements (NIS BR Analysis ver 5.10.00).

In test [2] the test system is HFD-fed mice. Kind of test: Indirect calorimetry and food intake in HFD-fed mice. Conditions: for energy expenditure adjusted for body weight and lean body mass (ANCOVA) / food intake (indirect calorimetry): HFD-fed mice; for VO2, VCO2 and energy expenditure: relative to HFD controls, last 2 days of 14-day treatment. The method, then: as §1
To assess post-treatment weight rebound (WR), the mice previously treated with vehicle, LJ-4378, or TZP were maintained on HFD for an additional 4 weeks following treatment cessation. Treatment protocols for the WR groups were identical to those of the HFD groups. In total, nine experimental groups were established: NCD + CTL, NCD + LJ, NCD + TZP; HFD + CTL, HFD + LJ, HFD + TZP; and WR + CTL, WR + LJ, WR + TZP. The volume of oxygen consumed (VO2), carbon dioxide produced (VCO2), respiratory exchange ratio (RER), energy expenditure, activity, and food intake were measured with PhenoMaster (TSE Systems, Bad Homburg, Germany). Indirect calorimetry was performed under controlled conditions, with a stable ambient temperature of 24 °C and a 12 h light/12-h dark cycle. Mice fed HFD were administered vehicle, LJ-4378, or TZP for 14 days, and the last 2 days of treatment were conducted during indirect calorimetry analysis. The WR model was examined by indirect calorimetry after 2 and 4 weeks of the weight regaining phase.

For test [3], the system named is HFD-fed mice. Kind of test: Hepatic PKA signaling (immunoblot, liver). Conditions: P-HSL/HSL, P-CREB/CREB. The method, then: To evaluate the anti-obesity effect in vivo, mice fed either NCD or HFD for 10 weeks were subsequently treated for up to 4 weeks. To control for injection route-related variables, all mice received both intraperitoneal (I.P.) and subcutaneous (S.C.) injections. […]
For protein extraction, we utilized PRO-RERP Protein Extraction Solution (17081, iNtRON Biotechnology, Gyeonggi-do, Korea), supplemented with […] […] Protein concentrations were determined using the Pierce BCA protein assay Kit (#23227, Thermo Fisher, Waltham, Massachusetts, USA) by measuring absorbance at 562 nm with a MultiSkan GO spectrophotometer (Thermo Fisher). The quantified proteins were loaded and separated in 12% SDS-PAGE gels and transferred to polyvinylidene difluoride (PVDF) membranes (Bio-Rad, Hercules, CA, USA). […] After secondary antibody incubation, membranes were washed 3 times with TBST and detected with the Fusion Solo chemiluminescence imaging system (Vilber Lourmat, France). EvolutionCapt (version 17.03) software and the ImageJ (National Institutes of Health, Bethesda, MD, USA) program were used for analysis and to quantify the protein level.
Western blot analysis of P-HSL/HSL and P-CREB/CREB in liver. […] Statistical significance was determined using two-way ANOVA followed by Bonferroni post hoc test.

On to `CCCCC#Cc1nc(N)c2ncn([C@@H]3SC[C@@H](O)[C@H]3O)c2n1` [LJ-4378], for which the “serum TNF-α levels” value with HFD-fed mice [1] (HFD-fed mice) is “reduced”. In the test on HFD-fed mice [1] (HFD-fed mice, RT-qPCR), the “Adgre1 and Tnf-α expression in gWAT” value is “remarkably suppressed”; the “M2-like macrophage markers (Arg1, Clec10a, Chil3, Il-10) in gWAT” value was “selectively upregulated”. Further, the “macrophage accumulation in gWAT (F4/80 protein, crown-like structures)” value in the test on HFD-fed mice [1] is on record as “significantly reduced”. In the test on HFD-fed mice [2], the “energy expenditure adjusted for body weight and lean body mass (ANCOVA)” value is “consistently increased energy expenditure”; the “food intake (indirect calorimetry)” value is listed as “did not affect the feeding behavior”; the “VO2, VCO2 and energy expenditure” value is on record as “significantly increased”. Besides, in the test on HFD-fed mice [3], the “phosphorylation of downstream targets of PKA in the liver” value is “Neither LJ-4378 nor TZP altered the phosphorylation”.
On to Tirzepatide [TZP, reference compound], for which the “serum TNF-α levels” value in the test with HFD-fed mice [1] (HFD-fed mice) is “reduced”. For the same molecule, in the test on HFD-fed mice [1] (HFD-fed mice, RT-qPCR), the “Adgre1 and Tnf-α expression in gWAT” value is “remarkably suppressed”. The “macrophage accumulation in gWAT (F4/80 protein, crown-like structures)” value in the test with HFD-fed mice [1] is given as “significantly reduced”. For the same molecule, in the test on HFD-fed mice [2], the “energy expenditure adjusted for body weight and lean body mass (ANCOVA)” value was “not significant when LBM was used as the covariate”; the “food intake (indirect calorimetry)” value is listed as “reduced food consumption”; the “VO2, VCO2 and energy expenditure” value is “significantly increased”. Further, the “phosphorylation of downstream targets of PKA in the liver” value in the test on HFD-fed mice [3] is listed as “Neither LJ-4378 nor TZP altered the phosphorylation”.

Values taken from publication PMC12680861, “Comparative analysis of LJ-4378 and tirzepatide in mouse models of obesity and weight regain” (Archives of Pharmacal Research, 2025).
